Assay results: patent publication US20150136167A1, “METHOD OF TREATING HAIR” (priority 2012, published 2015)

Columns and labels:
[1] = Solubility of actives at the 5% level; format: physicochemical
[2] = Hair straightening on dry hair switches (volume of switch image), Experiments 1 and 4
Description: Dark brown European wavy#6 switches of length 25 cm and weight 2 gms, were dosed with 2 ml each of 5% citric acid solutions at various pH's. They were combed straight and left to dry for at least 20 minutes. They were subsequently rinsed for 30 seconds under the tap. They were then combed straight and left to dry overnight. When dry the switches were combed straight and pictures taken. […] (Here volume refers to the projection of the switch image on to the screen and is given in mm^2).

[3] = Hair straightening with application to wet hair, Experiment 3
[4] = 5% solution at pH 2, 2 ml dosed on dry switch, left at least 20 min, rinsed, combed, dried overnight
[5] = 5% solution at pH 2, dosed on dry switch
[6] = 5% solution at pH 3, dosed on dry switch
[7] = 5% solution at pH 4, dosed on dry switch
[8] = 5% solution at pH 5, dosed on dry switch
[9] = 5% solution at pH 6, dosed on dry switch

Structure (SMILES)	Volume in mm^2 [2, 4] [mm^2]	% benefit over water [2, 5] [%]	% benefit over water [2, 6] [%]	Volume in mm^2 [2, 6] [mm^2]	further results
O=C(O)/C=C/C(=O)O [Fumaric acid]					solubility at the 5% level [1]: not soluble at the 5% level
O=C(O)CC(O)C(=O)O (stereo not drawn) [Malic acid]	12426	13.0			
O=C(O)CC(=O)O [Malonic acid]	11220	21.4	16.3	11950	
O=C(O)C(O)c1ccccc1 (stereo not drawn) [Mandelic acid, reference compound]	13545	5.1			
O=C(O)C(=O)O [Oxalic acid]	13419	6.0			
O=C(O)CC(O)(CC(=O)O)C(=O)O [citric acid]	9481	33.6	32.9	9574	% benefit over water [2, 7]: 17.9%; Volume in mm^2 [2, 7]: 11717 mm^2; % benefit over water [2, 8]: 23.9%; Volume in mm^2 [2, 8]: 10871 mm^2; % benefit over water [2, 9]: 15.0%; Volume in mm^2 [2, 9]: 12136 mm^2; straightening benefit compared with the results with dry hair ([3]; 5% solution at pH 2 applied to wet hair): significantly reduced; straightening benefit compared with the results with dry hair ([3]; 5% solution at pH 3 applied to wet hair): significantly reduced
O=C(O)/C=C(\CC(=O)O)C(=O)O [trans Aconitic acid]	8456	40.8	17.3	11812	
